Experimental data: patent US20250025451A1, “TREATMENT OF CANCER WITH KDM4 INHIBITORS” (Celgene Corporation, priority 2021, published 2025)
Read-outs that look alike come from different tables or passages of the source.

Legend:
[1] = system: T028P patient-derived pancreatic cancer organoid model; assay: organoid colony formation assay, T028P; assay type: cell-based, human
Method: (§1) The IC50 values for Compound 1 inhibition of colony formation and viability were determined for the patient-derived colon cancer organoid models: SU60, T002C, SU62, SU34, SU103, T03SC, and SU106, patient-derived pancreatic cancer organoid models PA016SF, PA0143F, T016P, and T028P, and a patient-derived breast cancer organoid model FS5S3.
(§2) Colony formation and viability assays were performed in multiwell plates seeded with organoids using an in vitro culture system composed of a Matrigel layer, media containing a defined set of growth factors, and co-culture with Wnt3 A-secreting mouse embryonic fibroblasts. Assays were initiated by adding either DMSO as a negative control, or an inhibitor panobinostatat 100×IC50 concentration as a positive control, or serially diluted Compound 1. The cultures were incubated for 168 or 144 hours after which the number of viable organoids in each test well was assessed respectively using one of two detection methods: CTG or staining with calcein-AM followed by imaging and colony counting. Colony count or viability of cells treated with compound 1 was expressed as a percent of the negative control. Aggregated Percent of Control values were plotted against the corresponding Compound 1 concentration and the absolute IC50 value was determined from a non-linear regression curve as the concentration where inhibition was 50% of the control.

[2] = system: erythroid hematopoietic progenitor cells derived from human bone marrow; assay: erythroid colony formation of hematopoietic progenitor cells; assay type: cell-based
Method: Compound 1 was evaluated for its effects on proliferation of erythroid and myeloid hematopoietic progenitor cells derived from human bone marrow at […] Technologies Inc. (Vancouver, BC, Canada).
Cells were thawed rapidly at 37° C. into DNAse I and then diluted in 10 mL of Iscove's Modified Dulbecco's medium containing 2% fetal bovine serum (IMDM+2% FBS) and washed by centrifugation (1200 rpm for 10 minutes at room temperature). The supernatant was discarded and the cell pellet resuspended in a known volume of IMDM+2% FBS. A nucleated cell count (3% glacial acetic acid) and viability assessment (trypan blue exclusive test) were performed.
Compound 1 and positive control (panobinostat) were diluted in DMSO and tested at concentrations ranging from 0.002 μM to 5 μM in final media. These dilutions provided the appropriate final test concentrations required for the test and control articles ([…], and 0.002 μM).
Test and control articles were incubated with human bone marrow hematopoietic progenitor cells. After 14 days, cell colonies were assessed.
To calculate the concentration of 50% and 90% inhibition of colony growth (IC50 and IC90) for each test article, a dose response curve was generated plotting the log of the test article concentration versus the percentage of control colony growth using GraphPad Prism. […] The IC50 and IC90 values for both test and control articles were derived from an interpolation of the curve fit. In cases where the IC50/90 value reported by GraphPad Prism is a value beyond the range of concentrations that were actually tested, if this value is more than 4 times the highest concentration tested, or where GraphPad Prism cannot calculate an IC50/90 value, notations of >5 μM (for test article compound 1) are used.

[3] = system: GXA-3036 gastric adenocarcinoma patient-derived xenograft; assay: in vivo efficacy, GXA-3036 gastric adenocarcinoma patient-derived xenograft model; conditions: GXA-3036 PDX; for Median Tumor Volume Diff. (Day 35): Day 35 minus Day 0; for Median Tumor Volume Diff. (Day 38): Day 38 minus Day 0
Method: The therapeutic in vivo efficacy of Compound 1 was evaluated in SU60 colorectal cancer, KYSE-150 esophageal cancer, COH70 triple-negative breast cancer, GXA-3036 gastric adenocarcinoma and OCI-LY19 Diffuse Large B-Cell Non-Hodgkin's Lymphoma xenograft models. In all studies, efficacy was determined based on percent tumor growth inhibition (TGI), differences in mean tumor growth, and statistical assessment of differences in net tumor volume distributions on the day of TGI analysis between control and treated animals. Tolerability was assessed based on differences in mean body weights between control and treated animals over the course of the study.
The in vivo efficacy and tolerability of Compound 1, administered orally as the lysine salt form suspended in a vehicle comprised of 5% 2-hydroxypropyl-beta-cyclodextrin (HPBCD) in 50 mM phosphate buffer (pH 7.4), were evaluated in female immunodeficient NMRI-Foxn1nu mice using the subcutaneous gastric adenocarcinoma GXA-3036, a moderately differentiated intestinal type (based on Lauren's criteria) PDX model of Asian origin. Each mouse was inoculated subcutaneously in the right flank with a GXA-3036 tumor fragment (3 to 4 mm edge length). When the average tumor size reached ˜109 mm3, test animals were randomized into 5 groups consisting of 8 mice per group and treatments were initiated. Control mice received 5% HPBCD in 50 mM phosphate buffer (pH 7.4) vehicle PO 3 on/4 off. Treated mice received the Compound 1 lysine salt form in vehicle at 5, 15, or 50 mg/kg on the same schedule or at 22.5 mg/kg 2 on/5 off. One control animal, classified as moribund, was euthanized on Day 17 and was censored from analysis. Individual tumors were measured twice weekly in two dimensions using a caliper, and the tumor volumes (TV) in mm3 were calculated using the formula: TV=0.5 a×b2, where a and b are the long and short diameters in mm, respectively. Mean tumor volumes±SEM were calculated and plotted versus days of dosing (FIG. 14 left panel). Body weights were measured twice weekly. Body weights±SEM were calculated and plotted versus days of dosing (FIG. 14 right panel).
TGI was determined on Days 35 and 38 as (1−Difftreated/Diffcontrol)×100. The differences in median net tumor volumes on the days of TGI analysis for treated versus control animals were evaluated statistically using the non-parametric Kruskal-Wallis test followed by Dunn's multiple comparisons test. The reported adjusted p-values are for both days of TGI analysis where a calculated probability (p)≤0.05 was considered statistically significant.

[4] = system: T002C patient-derived colon cancer organoid model; assay: organoid colony formation assay, T002C; assay type: cell-based, human
Method: as §1, §2

human cancer cell lines = assay: apoptosis in human cancer cell lines; assay type: cell-based
[5] = 15 mg/kg PO 3 on/4 off, 15 mg/kg
[6] = 22.5 mg/kg PO 2 on/5 off, 22.5 mg/kg
[7] = 50 mg/kg PO 3 on/4 off, 50 mg/kg

## CC(C)c1ccc(N(C)c2ccc3c(c2)OCC[C@H]3CNc2cnccc2C(=O)O)cc1 [Compound 1, 3-({[(4R)-7-{methyl[4-(propan-2-yl)phenyl]amino}-3,4-dihydro-2H-1-benzopyran-4-yl]methyl}amino)pyridine-4-carboxylic acid]
[1]; Homo sapiens, T028P pancreatic carcinoma model
  IC50: > 10 µM
[1]; T028P human pancreatic carcinoma organoid, 144 hrs, Colony Counts
  IC50: > 10 µM
[2]; 336 h, human bone marrow progenitor cells, 14 days, read-out: IC50, inhibition of erythroid colony formation
  IC50: > 5 µM
[2]; 336 h, human bone marrow progenitor cells, colony growth after 14 days
  IC90: > 5 µg/mL
[2]; 336 h, human bone marrow progenitor cells, colony growth after 14 days, read-out: Erythroid IC50
  IC50: > 5 µg/mL
[2]; erythroid derived colonies
  concentrations at which colony morphology (size and density) was slightly compromised: ≥ 1.67 μM
[2]; progenitor cells from normal human bone marrow, p>0.01
  effect on colony formation compared to 0.1% DMSO: no significant effect
[3]; female NMRI-Foxn1nu mice, all regimens
  tolerability (mean body weights): well-tolerated
[3]; female NMRI-Foxn1nu mice, lysine salt 5 mg/kg (free acid equivalents) PO 3 on/4 off
  Median Tumor Volume Day 35: 391 mm^3
[3]; female NMRI-Foxn1nu mice, lysine salt 15 mg/kg (free acid equivalents) PO 3 on/4 off
  Median Tumor Volume Day 35: 278 mm^3
[3]; female NMRI-Foxn1nu mice, lysine salt 22.5 mg/kg (free acid equivalents) PO 2 on/5 off
  Median Tumor Volume Day 35: 447 mm^3
[3]; female NMRI-Foxn1nu mice, lysine salt 50 mg/kg (free acid equivalents) PO 3 on/4 off
  Median Tumor Volume Day 35: 371 mm^3
[3]; 5 mg/kg PO 3 on/4 off
  Median Tumor Volume Day 38: 460 mm^3
  Median Tumor Volume Diff. (Day 35): 282 mm^3
  Median Tumor Volume Diff. (Day 38): 351 mm^3
[3]; 5 mg/kg PO 3 on/4 off, 5 mg/kg
  % TGI (Day 35): 52%
  % TGI (Day 38): 43%
[3]; 15 mg/kg PO 3 on/4 off
  Median Tumor Volume Day 38: 298 mm^3
  Median Tumor Volume Diff. (Day 35): 169 mm^3
  Median Tumor Volume Diff. (Day 38): 189 mm^3
[3]; [5]
  % TGI (Day 35): 71%
  % TGI (Day 38): 69%
[3]; 22.5 mg/kg PO 2 on/5 off
  Median Tumor Volume Day 38: 470 mm^3
  Median Tumor Volume Diff. (Day 35): 338 mm^3
  Median Tumor Volume Diff. (Day 38): 361 mm^3
[3]; [6]
  % TGI (Day 35): 42%
  % TGI (Day 38): 41%
[3]; 50 mg/kg PO 3 on/4 off
  Median Tumor Volume Day 38: 403 mm^3
  Median Tumor Volume Diff. (Day 35): 262 mm^3
  Median Tumor Volume Diff. (Day 38): 294 mm^3
[3]; [7]
  % TGI (Day 35): 55%
  % TGI (Day 38): 52%
[4]; Homo sapiens, T002C colorectal carcinoma model
  IC50: < 0.15 µM
[4]; T002C human colorectal carcinoma organoid, 144 hrs, Colony Counts
  IC50: 0.022 µM
Human cancer cell lines
  effect on apoptosis: induces apoptosis
